Test results reported in US20180369195A1, “COMBINATION THERAPY FOR TREATMENT OF MELANOMA” (The Regents of the University of California, priority 2015, published 2018).

Key:
Type in all cases: cell-based, human
β-catenin = assay: Western blot of β-catenin; conditions: G361, SK-MEL-2 cells pre-treated 3 hours with GSK3β inhibitor, then 20 μM 1-benzyl I3C 24 hours
Text: The western blots employed the following primary antibodies: mouse anti-MITF-M (Thermo-scientific), mouse anti-HSP 90 (BD Biosciences), mouse anti-CDK2, rabbit anti-CDK4, rabbit anti-CDK-6, mouse anti-rabbit BRAF, goat anti-LEF-1, rabbit anti-AXIN, mouse anti-BCL2, (Santa Cruz), rabbit anti-P21, mouse anti-Cyclin D1, rabbit anti-MEK-p, rabbit anti-MEK1/2, rabbit anti-GSK3β rabbit anti-LRP6, rabbit anti-LRP6-phospho (Cell signaling), mouse anti-β-catenin (Invitrogen).

MITF-M = MITF-M protein levels in cultured melanoma cells (western blot, immunofluorescence); conditions: for MITF-M protein levels (western blot): G-361 cells, 48 hours, 200 μM I3C, 10 μM Vemurafenib or 10 μM U0126
Description: (§1) Western Blot analyses of samples electrophoretically fractionated on 12% acrylamide gels were carried out as previously described (Wagle et al., J. Clin. Oncol. 2011. 29(22):3085-3096; Nguyen et al., Chem. Biol. Interact. 2010. 186(3):255-266). Enhanced chemiluminescence (ECL) Lightening reagents were used to visualize the primary antibody bound protein bands in nitrocellulose membranes and the results captured on ECL Autoradiography Film (GE Healthcare, Piscataway, N.J.). The western blots employed the following primary antibodies: mouse anti-MITF-M (Thermo-scientific), mouse anti-HSP 90 (BD Biosciences), mouse anti-CDK2, rabbit anti-CDK4, rabbit anti-CDK-6, mouse anti-rabbit BRAF, goat anti-LEF-1, rabbit anti-AXIN, mouse anti-BCL2, (Santa Cruz), rabbit anti-P21, mouse anti-Cyclin D1, rabbit anti-MEK-p, rabbit anti-MEK1/2, rabbit anti-GSK3β rabbit anti-LRP6, rabbit anti-LRP6-phospho (Cell signaling), mouse anti-β-catenin (Invitrogen).

CDK4 = assay: Western blot of CDK4; conditions: G-361 cells, 48 hours; 200 μM I3C, 10 μM Vemurafenib or 10 μM U0126
Description: as §1

phosphorylated Erk/MAPK = assay: Western blot of phosphorylated Erk/MAPK; conditions: G-361 cells, 48 hours; 200 μM I3C, 10 μM Vemurafenib or 10 μM U0126
Description: (§2) Western Blot analyses of samples electrophoretically fractionated on 12% acrylamide gels were carried out as previously described (Wagle et al., J. Clin. Oncol. 2011. 29(22):3085-3096; Nguyen et al., Chem. Biol. Interact. 2010. 186(3):255-266). […] The western blots employed the following primary antibodies: mouse anti-MITF-M (Thermo-scientific), mouse anti-HSP 90 (BD Biosciences), mouse anti-CDK2, rabbit anti-CDK4, rabbit anti-CDK-6, mouse anti-rabbit BRAF, goat anti-LEF-1, rabbit anti-AXIN, mouse anti-BCL2, (Santa Cruz), rabbit anti-P21, mouse anti-Cyclin D1, rabbit anti-MEK-p, rabbit anti-MEK1/2, rabbit anti-GSK3β rabbit anti-LRP6, rabbit anti-LRP6-phospho (Cell signaling), mouse anti-β-catenin (Invitrogen).

phosphorylated MEK = assay: Western blot of phosphorylated MEK; conditions: G361 and DM738 cells, 10 μM Vemurafenib, 24 hours
Description: as §2

SK-MEL-2 cells = assay: CCK-8 proliferation assay, SK-MEL-2; conditions: 48 hours
Description: […] Cells were treated with 20 μM 1-benzyl I3C every 24 hours for 72 hours and harvested at 24, 48 and 72 hours for western blot and flow cytometric analysis. Cells were treated with 20 μM LiCl or 10 μM BIO for 48 hours before harvesting them for western blots.
Subsequently inhibition of proliferation was assessed using Cell counting Kit-8 (Dojindo) as per the protocol in the user's manual. Briefly, 50 μl of the CCK-8 solution was added to each well along with 450 μl media and incubated for 2-3 hours. The absorbance was read at 450 nm and % inhibition was calculated for each condition standardizing DMSO to zero using the formula: [(100−Value of treatment/Value of DMSO treated control)×100]

Compound | rescue of 1-benzyl I3C induced downregulation of β-catenin, MITF-M, CDK2, BCl2 (β-catenin) | MITF-M protein levels (western blot) (MITF-M) | CDK4 protein levels (CDK4) | phosphorylated Erk/MAPK levels (phosphorylated Erk/MAPK) | sensitivity of MITF-M inhibition to Vemurafenib (MITF-M; SK-MEL-2 cells (wild-type BRAF), 10 μM Vemurafenib, 24 hours) | MEK-P levels (phosphorylated MEK) | antiproliferation in wild-type BRAF cells (SK-MEL-2 cells)
O=C1Nc2cc(Br)ccc2/C1=C1/Nc2ccccc2/C1=N\O [BIO, 6-bromoindirubin-3′-oxime] | significant rescue | – | – | – | – | – | –
[Cl-].[Li+] [LiCl, Lithium Chloride] | significant rescue | – | – | – | – | – | –
N#CC(=C(/N)Sc1ccccc1N)/C(C#N)=C(\N)Sc1ccccc1N [U0126, reference compound] | – | down regulated | down regulated | down regulated | – | – | –
Vemurafenib [reference compound] | – | down regulated | down regulated | down regulated | not sensitive to Vemurafenib action | downregulated MEK-P | ineffective
